According to patent US6458758B1, “Compositions and methods utilizing nitroxides in combination with biocompatible macromolecules” (Synzyme Technologies, Inc., priority 1993, dated 2002):
Read-outs that look alike come from different tables or passages of the source.

Tests used:
mice = settings: cited from earlier work
[1] = Superoxide oxidase / dismutase activity of nitroxide-labelled hemoglobin on storage (ESR); assay type: biochemical
Text: For example, an o-raffinose polymerized hemoglobin solution that has been labelled with 4-amino-TEMPO is stored in its oxygenated state in a sealed glass container (FIG. 1A). In such a state, the rate of superoxide anion and met-hemoglobin formation in solution is sufficiently rapid that the conversion of the nitroxide to its hydroxylamine derivatives may be conveniently monitored (See Equation [4] and compare FIGS. 1A and 1B). Equation 4 represents that the conversion of nitroxide to its diamagnetic hydroxyl derivative is coupled to the conversion of the superoxide anion back to molecular oxygen. […] (FIG. 1B). The nitroxide is considered to have performed a “superoxide oxidase”-like activity when it is converted to its hydroxylamine derivative in the presence of hemoglobin.
Knowing that under the experimental conditions described in FIGS. 1A and 1B the nitroxide is fully converted to hydroxylamine (See Equation [4]), the nitroxide may be regenerated by simply providing more superoxide anion as shown in Equation 5. […] This observation is consistent with the reconversion of the hydroxylamine derivative to nitroxide coupled with the formation of hydrogen peroxide from superoxide anion.

[2] = tested on: leukocyte rolling and adhesion to endothelial cells; assay: Cigarette smoke induced leukocyte rolling, adhesion and aggregate formation, dorsal skinfold chamber; assay type: in vivo, Syrian Golden hamsters
Text: The interactions of leukocytes with endothelial cells and platelets are an indicator of the microcirculatory response to several adverse physiological conditions, ranging from localized and systemic ischemia/reperfusion injury, rejection of organ grafts, and the response to the organism to various oxidizing novae. See also Lehr et al., PNAS, […]. The mediator role of reactive oxygen species has been documented in many in vitro and in vivo models and, as a consequence, antioxidants and radical scavengers have been applied to counteract leukocyte activation, aggregation, and adhesion to endothelium and the subsequent microcirculatory dysfunction.

[3] = In vivo ESR of mouse tail after iv nitroxide-labelled HBOC plus ^15ND17-TEMPOL; settings: 0.5 ml iv via cannula
Procedure: FIG. 7A is the ESR spectrum of the nitroxide signal recorded from the mouse tail approximately 10 minutes after intravenous infusion of 0.5 ml of the sample shown in FIG. 6. FIG. 7B is the time dependent (scan time 30 minutes) decrease in the center peak (Mo) signal intensity of FIG. 7A recorded at 10 times of the instrument sensitivity. FIG. 7C is a continuation of FIG. 7B at the end of its scan.
FIG. 8A is a series of 5 ESR spectrum recorded at 0.5 minute intervals, the magnetic field strength was increased by 2 Gauss in between each scan to display the decrease in signal intensity as a function of time. […]
The separation of the resonance peaks permits the simultaneous monitoring of free radical or enzyme mimic activities involving the small molecular weight nitroxide (TEMPOL) and its macromolecular conjugate in both in vitro and in vivo (murine) reactions. […] First, the approximate plasma half-life of a small molecular weight nitroxide (^15ND17-TEMPOL see FIG. 4C) and a large molecular weight 4-(2-bromoacetamido)-TEMPOL-labelled HBOC (see FIG. 4B) are determined by preparing a mixture of the two and adjusting the ESR signal intensity to be approximately the same (see FIG. 6). […] The mouse tail was inserted into an ESR cavity and the spectrum was recorded within 10 minutes after injection (see FIG. 7A). […]

[4] = In vivo EPR of mouse skin: intradermal PNA and intravenous ^15N-TPL
Procedure: Thirty minutes later the spectrum in (C) was recorded.
The intensity of the low field ^15N-TPL peak is plotted against time. […].
FIGS. 42A and 42B show the pharmacokinetics of intravenous ^15N-TPL (1% v/w) measured at a patch of skin on the abdomen of the mouse.
A custom-built bridged loop-gap surface resonator, absorption microwave bridge was used for in vivo EPR spectroscopy at 1.25 GHz (L-band) in the mouse. […] The anesthetized mouse was placed in a ‘sandwich’ of two templates which allowed it to be placed on the loop-gap surface resonator, absorption microwave bridge in either the supine position, for spectroscopy of the back of the head, or in the prone position for spectroscopy of the abdomen. A tail vein cannula was used for intravenous injection of ^15N-TEMPOL; this injection site was remote from the resonator.
The spectrum was made 1 minute after ^15N-TPL was injected via the tail vein. […] FIG. 40B was recorded at approximately ⅕ of the instrument gain used in FIG. 40A in order to accommodate the ^15N-TPL signal.

C57 mice = assay: 30-day survival of C57 mice after 10 Gray irradiation; assay type: in vivo; settings: TPL 200 mg/kg ip, PNA 0.5 ml/mouse iv where given, 10 mice per group
[5] = EPR signal of ^15N-TEMPOL in isolated ischemic rat heart; settings: 2 mM TPL
Procedure: The solid lines are double-exponential fittings to the observed intensity data. The half-lives are 0.4 minutes, 2.9 minutes (▪), and 3.3 minutes, 30.1 minutes (●) respectively.
Using methods essentially as described in Kuppusamy et al. Proc. Natl. Act. Sci., USA Vol. 91, pgs.
In an EPR imaging study, the rat heart was perfused with a solution containing nitroxide with or without polynitroxide albumin, followed by cessation of perfusate flow in order to create ischemia. […] It can be seen the signal intensity undergoes a biphasic decay and that the presence of polynitroxide albumin greatly slows the decay. By thus stabilizing the TEMPOL signal, polynitroxide albumin allows high-quality EPR images to be obtained over a prolonged period of time. Referring to FIGS. 22-23, a three-dimensional EPR image of the ischemic heart can still be obtained after 156 minutes of global ischemia. […] This illustrates that the presence of PNA allows much better imaging than is possible with TEMPOL alone, in terms both of resolution and signal persistence.
In FIG. 24, the intensity of the EPR signal is shown as a function of the duration of ischemia. In the lower curve, 2 mM of TEMPOL is infused into an ischemic heart. The upper curve traces the original intensity of 2 mM TEMPOL together with a polynitroxide albumin (4 g/dl of albumin at 42 moles of TEMPOL per mole of albumin). […]

[6] = Plasma levels of TPL with or without PNA in C57 mice (EPR); settings: TPL 275 mg/kg ip alone
C3H mice = settings: cited from earlier work
[7] = Rat plasma TPL after intravenous injection (EPR spin density); assay type: in vivo; settings: 100 mM solution, 10% v/v top load
Procedure: FIG. 14 is a plot showing time dependence of rat plasma concentrations of TPL after intravenous injections. Plasma samples were obtained from rats described in FIG. 13. TPL concentrations were determined from EPR spin density measurements.

in vivo = settings: iv
conscious rats = assay: Mean arterial pressure response in conscious rats
Text: The rats were allowed to recover from surgery and anesthesia for approximately 7 days prior to study.
The rats were allowed to recover from surgery and anesthesia for approximately seven days prior to study.

[8] = tested on: Chinese Hamster V79 cells; assay: Radioprotection of Chinese Hamster V79 cells at 12 Gray; assay type: cell-based; settings: 12 Gray x-ray; cells pretreated 10 minutes prior to irradiation

Molecule: CC1(C)CCCC(C)(C)N1[O] [TEMPO, 2,2,6,6 tetramethylpiperidine-1-oxyl]
- LD50 (mice; mice, intraperitoneal): 341 mg/kg
- maximum tolerated intraperitoneal dose (mice; mice): 275 mg/kg

Molecule: 4-amino-TEMPO labelled o-raffinose polymerized hemoglobin: o-raffinose polymerized hemoglobin labelled with 4-amino-TEMPO
- nitroxide signal after storage of sample diluted with equal volume of unlabelled hemoglobin ([1]; 30 days of cold storage at 4° C.): partially regenerated
- ESR resonance peaks after storage (conversion of nitroxide to hydroxylamine) ([1]; oxygenated, sealed glass container, 30 days at 4° C.): complete disappearance of the resonance peaks

Molecule: Hemoglobin-based oxygen carrier (HBOC), DBBF-Hb: purified hemoglobin cross-linked with bis(3,5 dibromosalicyl)fumarate
- aggregate formation ([2]; 15 MINUTES): 3.0 ± 1.7 /30 sec
- arteriolar sticking ([2]; 15 MINUTES): 31.9 ± 26.4 /mm^2
- venular rolling ([2]; 15 MINUTES): 7.9 ± 2.8%
- venular sticking ([2]; 15 MINUTES): 66.0 ± 43.2 /mm^2
- aggregate formation ([2]; 60 MINUTES): 4.5 ± 2.6 /30 sec
- arteriolar rolling ([2]; 60 MINUTES): 3.8 ± 2.9 /mm
- arteriolar sticking ([2]; 60 MINUTES): 42.0 ± 32.1 /mm^2
- venular rolling ([2]; 60 MINUTES): 9.2 ± 3.8%
- venular sticking ([2]; 60 MINUTES): 101.5 ± 76.9 /mm^2
- aggregate formation ([2]; BASELINE): 0.3 ± 0.5 /30 sec
- arteriolar rolling ([2]; BASELINE): 0.3 /mm
- arteriolar sticking ([2]; BASELINE): 0.0 /mm^2
- venular rolling ([2]; BASELINE): 5.8 ± 1.2%
- venular sticking ([2]; BASELINE): 0.0 ± 0.0 /mm^2
- leukocyte activation ([2]; cigarette smoke, compared with saline-treated controls): no effect

Molecule: [2H]C([2H])([2H])C1(C([2H])([2H])[2H])[15N]([O])C(C([2H])([2H])[2H])(C([2H])([2H])[2H])C([2H])([2H])C([2H])(O)C1([2H])[2H] [^15ND17-TEMPOL]
- time to disappearance of ESR signal after injection [3]: ≤ 2.5 min

Molecule: CC1(C)CC(O)CC(C)(C)[15N]1[O] [^15N-TPL]
- plasma half-life (reduction to TPH) (mouse, 0.5 ml of 40 mM iv, no PNA): 2 min
- local half-life in skin ([4]; abdomen skin, absence of intradermal PNA): 0.5 min
- time the increased ^15N-TPL signal was maintained ([4]; abdomen skin, after intradermal injection of 100 μl PNA): at least 30 minutes
- decay of ^15N-TPL to ^15N-TPH ([4]; absence of intradermal PNA): complete
- time to maximum ^15N-TPL signal after tail vein injection ([4]; measured at site of intradermal PNA injection on the back): less than 2 minutes
- residual steady-state level as share of the initial ^15N-TPL concentration ([4]; site of intradermal PNA injection, assuming complete distribution in total body water): 17%
- time the ^15N-TPL signal remained stable ([4]; skin on the back, in the presence of intradermal PNA): at least 30 minutes

Molecule: CC1(C)CC(O)CC(C)(C)N1[O] [TPL, 4-hydroxy-2,2,6,6-tetramethylpiperidine-1-oxyl]
- time to maximum peak intensity in mouse tail (repeat iv injection of TEMPOL): approximately 10 seconds
- 30-day survival (C57 mice): 10%
- half-life at 2 mM ([5]; read-out: half-life of EPR signal, first phase of double-exponential fit): 0.4 min
- half-life at 2 mM ([5]; read-out: half-life of EPR signal, second phase of double-exponential fit): 2.9 min
- maximum plasma level of TPL relative to ~100 mg/kg ip in the presence of PNA [6]: approximately one-fifth
- maximal TPL levels in whole blood (C3H mice; 275 mg/kg ip, 5-10 minutes after injection): ~150 µg/mL
- dose of radiation at which 50% of treated mice die within 30 days (C3H mice; TPL 275 mg/kg ip 5-10 minutes before whole body radiation): 9.97 Gray
- half-life [7]: < 1 min
- maximal tolerated dose administered intraperitoneally (mice; C3H mice): 275 mg/kg
- half-life (in vivo; C57, mouse): ~0.833 min
- half-life (in vivo; mouse): ~2 min
- vasodilatory effect (conscious rats; 10% v/v top load, PNA 5 g/dl, TPL 100 mM): no significant vasodilatory effect
- antihypertensive effect when injected alone with HBOC (conscious rats; conscious rats): no antihypertensive effect

Molecule: CC1(C)CC(O)CC(C)(C)N1O [TPH]
- surviving fraction of V79 cells [8]: 2%
